# Test results reported in article PMC6050590 (Nature, 2017).
# Legend:
# [1] = system: H3K27Ac and AR occupancy at the PSA enhancer, LnCaP-FGC cells; test: ChIP at the PSA enhancer in DHT-stimulated LnCaP-FGC cells; assay type: cell-based; conditions: DHT 6 h
# [2] = system: PSA expression in 22Rv1 cells; test: qRT-PCR of PSA expression in androgen depleted 22Rv1 cells; assay type: cell-based; conditions: absence of androgens, 7 h and 24 h
# [3] = system: c-Myc expression in 22Rv1 cells; test: c-Myc expression in androgen depleted 22Rv1 cells; assay type: cell-based
# [4] = system: DHT responsive genes in 22Rv1 cells; assay type: cell-based; conditions: androgen depleted 22Rv1 cells
# 22Rv1 cells = test: Proliferation of androgen depleted 22Rv1 cells; assay type: cell-based; conditions: absence of androgens
# p300-BHC [5] = target: T1, p300-BHC (Homo sapiens, UniProt Q09472); test: AlphaLISA-based peptide substrate binding assay
# T1 sequence (Q09472 1049-1809 limits assumed): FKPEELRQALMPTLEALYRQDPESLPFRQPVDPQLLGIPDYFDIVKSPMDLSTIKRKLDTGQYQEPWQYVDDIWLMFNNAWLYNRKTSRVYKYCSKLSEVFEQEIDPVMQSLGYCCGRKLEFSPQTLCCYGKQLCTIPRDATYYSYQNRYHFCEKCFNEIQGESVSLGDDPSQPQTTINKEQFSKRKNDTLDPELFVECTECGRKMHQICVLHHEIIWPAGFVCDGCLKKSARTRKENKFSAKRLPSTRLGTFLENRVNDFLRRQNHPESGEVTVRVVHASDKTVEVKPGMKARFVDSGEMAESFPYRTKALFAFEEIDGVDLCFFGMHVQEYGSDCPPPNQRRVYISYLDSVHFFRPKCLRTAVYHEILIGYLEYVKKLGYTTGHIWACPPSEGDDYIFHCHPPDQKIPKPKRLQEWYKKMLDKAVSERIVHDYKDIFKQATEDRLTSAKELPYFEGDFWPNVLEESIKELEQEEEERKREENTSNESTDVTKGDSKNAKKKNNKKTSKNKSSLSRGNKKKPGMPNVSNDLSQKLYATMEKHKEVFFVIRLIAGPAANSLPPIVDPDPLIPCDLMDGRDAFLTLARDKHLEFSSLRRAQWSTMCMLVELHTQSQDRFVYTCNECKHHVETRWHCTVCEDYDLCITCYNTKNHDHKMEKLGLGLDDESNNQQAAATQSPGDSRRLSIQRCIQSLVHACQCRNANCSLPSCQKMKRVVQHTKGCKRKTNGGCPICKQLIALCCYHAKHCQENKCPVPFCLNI
# MYST3 = MYST3 (Homo sapiens, UniProt Q92794); test: HAT family selectivity, MYST3; conditions: at 10 µM
# Sequence of MYST3 (Q92794 whole entry): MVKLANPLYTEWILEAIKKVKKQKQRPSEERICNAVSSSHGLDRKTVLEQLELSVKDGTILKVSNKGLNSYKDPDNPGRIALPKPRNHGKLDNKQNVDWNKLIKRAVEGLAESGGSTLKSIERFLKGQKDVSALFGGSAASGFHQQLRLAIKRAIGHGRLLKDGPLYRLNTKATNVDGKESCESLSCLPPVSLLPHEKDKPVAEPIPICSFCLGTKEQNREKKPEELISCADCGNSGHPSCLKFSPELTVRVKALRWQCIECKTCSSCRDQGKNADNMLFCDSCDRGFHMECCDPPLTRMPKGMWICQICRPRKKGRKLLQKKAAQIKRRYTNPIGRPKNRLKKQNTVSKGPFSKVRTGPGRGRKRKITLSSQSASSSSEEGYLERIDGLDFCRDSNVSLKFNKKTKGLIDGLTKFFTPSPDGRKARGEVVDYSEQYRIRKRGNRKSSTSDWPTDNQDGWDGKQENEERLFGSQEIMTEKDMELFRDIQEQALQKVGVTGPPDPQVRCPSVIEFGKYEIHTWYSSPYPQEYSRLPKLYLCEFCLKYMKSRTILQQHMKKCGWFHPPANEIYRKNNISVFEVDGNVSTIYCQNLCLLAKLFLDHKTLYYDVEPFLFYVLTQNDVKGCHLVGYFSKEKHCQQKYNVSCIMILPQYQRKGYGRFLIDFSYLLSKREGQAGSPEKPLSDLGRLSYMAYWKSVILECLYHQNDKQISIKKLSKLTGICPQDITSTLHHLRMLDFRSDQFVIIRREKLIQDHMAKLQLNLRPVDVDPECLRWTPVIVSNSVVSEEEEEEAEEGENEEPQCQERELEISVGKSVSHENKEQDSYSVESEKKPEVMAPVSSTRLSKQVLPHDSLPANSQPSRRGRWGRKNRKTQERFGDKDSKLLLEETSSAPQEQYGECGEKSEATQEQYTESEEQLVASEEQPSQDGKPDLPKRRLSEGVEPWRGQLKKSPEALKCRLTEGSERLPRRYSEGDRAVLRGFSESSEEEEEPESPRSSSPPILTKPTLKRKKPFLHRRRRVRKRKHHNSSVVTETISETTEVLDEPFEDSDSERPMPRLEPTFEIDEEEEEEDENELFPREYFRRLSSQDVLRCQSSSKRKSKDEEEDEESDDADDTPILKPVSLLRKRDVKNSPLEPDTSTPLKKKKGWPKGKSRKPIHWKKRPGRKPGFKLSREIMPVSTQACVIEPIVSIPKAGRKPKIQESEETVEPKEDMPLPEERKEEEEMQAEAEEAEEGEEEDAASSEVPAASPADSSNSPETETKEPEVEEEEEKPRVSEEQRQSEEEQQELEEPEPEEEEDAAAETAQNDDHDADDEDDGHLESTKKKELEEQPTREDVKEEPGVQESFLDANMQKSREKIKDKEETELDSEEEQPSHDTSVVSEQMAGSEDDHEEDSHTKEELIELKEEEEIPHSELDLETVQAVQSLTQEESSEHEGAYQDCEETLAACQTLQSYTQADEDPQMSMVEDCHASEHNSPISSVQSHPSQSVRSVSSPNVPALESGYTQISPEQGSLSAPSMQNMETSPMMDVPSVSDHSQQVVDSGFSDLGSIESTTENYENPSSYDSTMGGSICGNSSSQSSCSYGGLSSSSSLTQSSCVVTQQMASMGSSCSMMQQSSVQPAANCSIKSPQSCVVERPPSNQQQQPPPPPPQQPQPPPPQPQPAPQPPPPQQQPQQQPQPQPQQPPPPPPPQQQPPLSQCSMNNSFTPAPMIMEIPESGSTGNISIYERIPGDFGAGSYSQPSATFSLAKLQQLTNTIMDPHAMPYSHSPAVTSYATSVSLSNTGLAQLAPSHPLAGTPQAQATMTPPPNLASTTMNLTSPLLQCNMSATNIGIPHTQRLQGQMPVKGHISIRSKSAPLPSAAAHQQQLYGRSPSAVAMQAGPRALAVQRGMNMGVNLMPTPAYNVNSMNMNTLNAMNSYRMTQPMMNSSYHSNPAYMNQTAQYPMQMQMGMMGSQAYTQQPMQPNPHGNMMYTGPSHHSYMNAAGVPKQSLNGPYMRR
# Brain exposure = conditions: in vivo
# serotonin transporter = serotonin transporter (Homo sapiens, UniProt P31645); test: Non-epigenetic target panel, serotonin transporter binding; conditions: at 10 µM
# Sequence of serotonin transporter (P31645 whole entry): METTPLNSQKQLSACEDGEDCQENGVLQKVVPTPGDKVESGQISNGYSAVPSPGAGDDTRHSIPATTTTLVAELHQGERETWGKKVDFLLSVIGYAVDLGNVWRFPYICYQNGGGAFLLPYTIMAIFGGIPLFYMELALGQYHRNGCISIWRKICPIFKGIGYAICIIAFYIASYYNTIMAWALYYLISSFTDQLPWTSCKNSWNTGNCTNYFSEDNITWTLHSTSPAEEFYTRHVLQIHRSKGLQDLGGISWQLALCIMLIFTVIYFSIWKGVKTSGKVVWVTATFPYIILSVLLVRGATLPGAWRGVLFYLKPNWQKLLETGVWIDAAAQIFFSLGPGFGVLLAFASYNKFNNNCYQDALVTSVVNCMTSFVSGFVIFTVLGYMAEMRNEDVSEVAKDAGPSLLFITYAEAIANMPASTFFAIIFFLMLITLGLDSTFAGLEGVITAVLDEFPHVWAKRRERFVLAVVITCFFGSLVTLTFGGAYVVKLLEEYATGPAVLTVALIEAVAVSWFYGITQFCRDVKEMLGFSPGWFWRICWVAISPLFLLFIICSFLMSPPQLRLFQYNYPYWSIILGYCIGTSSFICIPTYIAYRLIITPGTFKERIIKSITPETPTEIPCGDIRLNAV
# LuCaP-77 CR xenograft = test: LuCaP-77 CR castration resistant prostate cancer xenograft model; assay type: in vivo, SCID male mice; conditions: 7 days dosing, 3 h post-dosing
# PCAF = PCAF (Homo sapiens, UniProt Q92831); test: HAT family selectivity, PCAF; conditions: at 10 µM
# Sequence of PCAF (Q92831 whole entry): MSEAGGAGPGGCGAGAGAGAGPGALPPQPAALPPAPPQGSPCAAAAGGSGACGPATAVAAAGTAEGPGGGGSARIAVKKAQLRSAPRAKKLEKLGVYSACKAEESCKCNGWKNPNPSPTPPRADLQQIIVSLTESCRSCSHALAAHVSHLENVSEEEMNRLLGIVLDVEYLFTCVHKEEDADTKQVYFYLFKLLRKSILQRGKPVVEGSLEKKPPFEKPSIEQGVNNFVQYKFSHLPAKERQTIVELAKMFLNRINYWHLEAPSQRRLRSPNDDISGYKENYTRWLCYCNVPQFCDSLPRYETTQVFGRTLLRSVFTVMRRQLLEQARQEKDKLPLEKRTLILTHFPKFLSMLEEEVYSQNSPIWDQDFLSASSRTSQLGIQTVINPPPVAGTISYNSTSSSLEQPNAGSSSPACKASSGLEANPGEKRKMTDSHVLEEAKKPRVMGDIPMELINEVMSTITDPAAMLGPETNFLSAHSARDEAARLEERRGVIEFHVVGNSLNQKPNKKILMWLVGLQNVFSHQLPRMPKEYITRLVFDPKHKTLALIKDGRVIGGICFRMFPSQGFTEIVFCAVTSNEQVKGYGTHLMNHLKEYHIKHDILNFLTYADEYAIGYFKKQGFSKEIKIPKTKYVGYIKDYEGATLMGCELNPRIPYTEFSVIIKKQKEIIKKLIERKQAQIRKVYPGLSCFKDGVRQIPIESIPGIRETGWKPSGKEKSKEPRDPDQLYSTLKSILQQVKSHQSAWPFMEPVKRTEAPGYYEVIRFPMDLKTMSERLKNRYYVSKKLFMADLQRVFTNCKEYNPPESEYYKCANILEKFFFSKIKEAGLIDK
# TIP60 = TIP60 (Homo sapiens, UniProt Q92993); test: HAT family selectivity, TIP60; conditions: at 10 µM
# Sequence of TIP60 (Q92993 whole entry): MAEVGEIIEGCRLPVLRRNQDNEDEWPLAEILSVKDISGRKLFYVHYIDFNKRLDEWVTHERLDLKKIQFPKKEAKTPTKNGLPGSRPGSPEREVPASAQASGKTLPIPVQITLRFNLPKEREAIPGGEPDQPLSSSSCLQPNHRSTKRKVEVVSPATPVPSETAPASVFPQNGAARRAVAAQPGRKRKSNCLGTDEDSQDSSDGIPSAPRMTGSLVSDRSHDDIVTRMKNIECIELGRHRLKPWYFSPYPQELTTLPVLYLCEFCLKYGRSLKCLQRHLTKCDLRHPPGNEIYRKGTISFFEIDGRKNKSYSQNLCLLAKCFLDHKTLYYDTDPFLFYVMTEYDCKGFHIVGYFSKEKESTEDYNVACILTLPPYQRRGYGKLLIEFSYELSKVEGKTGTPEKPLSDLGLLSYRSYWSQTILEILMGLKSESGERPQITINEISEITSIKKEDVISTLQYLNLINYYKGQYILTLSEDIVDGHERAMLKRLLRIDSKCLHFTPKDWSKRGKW
# dopamine transporter = dopamine transporter (Homo sapiens, UniProt Q01959); test: Non-epigenetic target panel, dopamine transporter binding; conditions: at 10 µM
# HAT1 = HAT1 (Homo sapiens, UniProt O14929); test: HAT family selectivity, HAT1; conditions: at 10 µM
# GCN5L2 = GCN5L2 (Homo sapiens, UniProt Q92830); test: HAT family selectivity, GCN5L2; conditions: at 10 µM
# H3K9Ac in PC-3 cells = test: High content microscopy of H3K9Ac in PC-3 cells; conditions: Homo sapiens, PC-3, 3 h, read-out: EC50, decrease of H3K9Ac
# [6] = system: AR+ prostate cancer cell lines; test: Cell proliferation of prostate cancer cell lines
# [7] = system: PSA expression in LnCaP-FGC cells; test: qRT-PCR of DHT-stimulated PSA expression in LnCaP-FGC cells; assay type: cell-based; conditions: 7 h and 24 h
# MYST4 = MYST4 (Homo sapiens, UniProt Q8WYB5); test: HAT family selectivity, MYST4; conditions: at 10 µM
# p300-HAT = p300-HAT (Homo sapiens, UniProt Q09472); test: Surface plasmon resonance binding to p300-HAT; conditions: SPR
# H3K27Ac in PC-3 cells = test: High content microscopy of H3K27Ac in PC-3 cells; assay type: cell-based
# [8] = target: p300-BHC (bromodomain-HAT-C/H3) domain (Homo sapiens, UniProt Q09472); conditions: toward p300 and CBP
# Sequence of p300-BHC (bromodomain-HAT-C/H3) domain (Q09472 1049-1809 limits assumed): as the sequence (Q09472 1049-1809 limits assumed) above
# p300-BHC [9] = target: T1, p300-BHC; test: Thermal shift assay with p300-BHC
smiles,measurement,setting,value
"CNC(=O)c1ccc(N2C(=S)N(c3ccc(C#N)c(C(F)(F)F)c3)C(=O)C2(C)C)cc1F [enzalutamide, reference compound]",AR occupancy at the PSA enhancer,[1],decreased AR occupancy
same,H3K27Ac at the PSA enhancer,[1],reduced H3K27Ac binding
same,PSA expression,[2],inactive
same,c-Myc expression,[3],no effect
same,"effect on DHT responsive genes, in words",[4],inactive
same,inhibition of proliferation,22Rv1 cells,inactive
CNC(=O)Nc1ccc2c(c1)CC[C@@]21OC(=O)N(CC(=O)N(Cc2ccc(F)cc2)[C@@H](C)C(F)(F)F)C1=O [Compound A-485],competition with peptide substrate binding,p300-BHC [5],not competitive with the peptide substrate
same,inhibition of MYST3 activity,MYST3,did not inhibit
same,H3K27Ac at the PSA enhancer,[1],reduced H3K27Ac binding
same,brain exposure,Brain exposure,does not achieve significant brain exposure
same,binding to serotonin transporter,serotonin transporter,> 90%
same,tumor mRNA levels of SLC45A3 and c-Myc,LuCaP-77 CR xenograft,decrease
same,inhibition of PCAF activity,PCAF,did not inhibit
same,inhibition of TIP60 activity,TIP60,did not inhibit
same,binding to dopamine transporter,dopamine transporter,> 90%
same,inhibition of HAT1 activity,HAT1,did not inhibit
same,inhibition of GCN5L2 activity,GCN5L2,did not inhibit
same,EC50,H3K9Ac in PC-3 cells,> 10 µM
same,PSA expression,[2],decreased PSA expression
same,inhibition of proliferation,[6],potent inhibition of proliferation
same,DHT-stimulated PSA expression,[7],attenuated DHT-stimulated PSA expression more potently than the AR antagonist enzalutamide
same,c-Myc expression,[3],robustly decreased
same,inhibition of MYST4 activity,MYST4,did not inhibit
same,inhibition of proliferation,22Rv1 cells,inhibited proliferation
CNC(=O)Nc1ccc2c(c1)[C@@]1(CC2)OC(=O)N(CC(=O)N(Cc2ccc(F)cc2)[C@@H](C)C(F)(F)F)C1=O [Compound A-486],fold weaker binding than A-485,p300-HAT,"~ 1,000 fold"
same,"effect on H3K27Ac, in words",H3K27Ac in PC-3 cells,inactive
same,fold less potent than A-485,[8],~ 1000 fold
same,PSA expression,[2],inactive
same,inhibition of proliferation,22Rv1 cells,inactive
CC(=O)N[C@@H](CCCCNC(=O)CSCCNC(=O)CCNC(=O)[C@H](O)C(C)(C)COP(=O)(O)OP(=O)(O)OC[C@H]1O[C@@H](n2cnc3c(N)ncnc32)[C@H](O)[C@@H]1OP(=O)(O)O)C(N)=O [Lys-CoA],increase of thermostability of p300-BHC,p300-BHC [9],5.8 °C
"CC1=NN(c2ccc(C(=O)O)cc2)C(=O)/C1=C\c1ccc(-c2cc(C)c(C)cc2[N+](=O)[O-])o1 [Compound C646, reference compound]","effect on H3K27Ac, in words",H3K27Ac in PC-3 cells,only modest inhibition
